± gives the expanded uncertainty stated by the source.
Key:
[1] = 101.33 kPa, Liquid; for speed of sound: Single path-length method; for mass density: Vibrating tube method
[2] = refractive index (Na D-line) (dimensionless); conditions: 101.33 kPa, Liquid, Standard Abbe refractometry
[3] = wn = mass fraction of the nth substance listed; conditions: 298.15 K, 100 kPa, Liquid; for viscosity: Falling or rolling sphere viscometry; for speed of sound: Frequency=3 MHz, Single path-length method; for mass density: Vibrating tube method
[4] = refractive index (Na D-line) (dimensionless); wn = mass fraction of the nth substance listed; conditions: 298.15 K, 100 kPa, Liquid, Standard Abbe refractometry

CCCCCC(=O)[O-].CCCCCC[NH+](CCCCCC)CCCCCC [trihexylammonium hexanoate]
viscosity [mPa·s], [1]
Conditions	Cone and plate viscometry	Falling or rolling sphere viscometry
293.15 K	–	13.86 ± 2
298.15 K	12.53 ± 4	11.44 ± 2
303.15 K	–	9.55 ± 2
308.15 K	–	8.05 ± 2
313.15 K	–	6.86 ± 2
318.15 K	–	5.9 ± 2
323.15 K	–	5.11 ± 2
328.15 K	–	4.48 ± 2
333.15 K	–	3.95
338.15 K	–	3.5
343.15 K	–	3.12

Conditions	mass density, [1] [kg/m3]	refractive index, [2]	speed of sound, [1] [m/s]
293.15 K	849.82 ± 4.1	1.4432 ± 0.0014	1353.3 ± 5.4
298.15 K	846.21 ± 4.1	1.4412 ± 0.0014	1335.7 ± 5.4
303.15 K	842.59 ± 4.1	1.4395 ± 0.0014	1317.8 ± 5.4
308.15 K	838.96 ± 4.1	1.4375 ± 0.0014	1300.1 ± 5.4
313.15 K	835.33 ± 4	1.4355 ± 0.0014	1282.2 ± 5.4
318.15 K	831.69 ± 4	1.4336 ± 0.0014	1264.9 ± 5.4
323.15 K	828.04 ± 4	1.4315 ± 0.0014	1247.7 ± 5.4
328.15 K	824.38 ± 4	1.4297 ± 0.0014	1230.6 ± 5.4
333.15 K	820.72 ± 3.9	1.4278 ± 0.0014	1213.7 ± 5.4
338.15 K	817.03 ± 3.9	1.4258 ± 0.0014	1196.9 ± 5.4
343.15 K	813.33 ± 3.9	1.4238 ± 0.0014	1180.3 ± 5.4

CCCC(=O)[O-].CCCCCC[NH+](CCCCCC)CCCCCC [trihexylammonium butanoate]
viscosity [mPa·s], [1]
Conditions	Cone and plate viscometry	Falling or rolling sphere viscometry
293.15 K	–	13.26 ± 2
298.15 K	11.52 ± 4	10.91 ± 2
303.15 K	–	9.09 ± 2
308.15 K	–	7.66 ± 2
313.15 K	–	6.52 ± 2
318.15 K	–	5.6 ± 2
323.15 K	–	4.85 ± 2
328.15 K	–	4.24 ± 2
333.15 K	–	3.73
338.15 K	–	3.3
343.15 K	–	2.94

Conditions	mass density, [1] [kg/m3]	refractive index, [2]	speed of sound, [1] [m/s]
293.15 K	848.02 ± 4.1	1.4419 ± 0.0014	1345 ± 5.4
298.15 K	844.32 ± 4.1	1.44 ± 0.0014	1326.7 ± 5.4
303.15 K	840.63 ± 4.1	1.438 ± 0.0014	1308.6 ± 5.4
308.15 K	836.93 ± 4	1.4361 ± 0.0014	1290.7 ± 5.4
313.15 K	833.22 ± 4	1.4342 ± 0.0014	1273 ± 5.4
318.15 K	829.5 ± 4	1.4322 ± 0.0014	1255.5 ± 5.4
323.15 K	825.78 ± 4	1.4302 ± 0.0014	1238.1 ± 5.4
328.15 K	822.04 ± 4	1.4282 ± 0.0014	1221 ± 5.4
333.15 K	818.3 ± 3.9	1.4262 ± 0.0014	1204 ± 5.4
338.15 K	814.54 ± 3.9	1.4241 ± 0.0014	1187.3 ± 5.4
343.15 K	810.76 ± 3.9	1.4221 ± 0.0014	1171.3 ± 5.4

CCCC(=O)[O-].CCCCCCCC[NH+](CCCCCCCC)CCCCCCCC [trioctylammonium butanoate]
viscosity [mPa·s], [1]
Conditions	Cone and plate viscometry	Falling or rolling sphere viscometry
293.15 K	–	17.82 ± 2.1
298.15 K	16.03 ± 4	14.55 ± 2
303.15 K	–	12.06 ± 2
308.15 K	–	10.09 ± 2
313.15 K	–	8.55 ± 2
318.15 K	–	7.3 ± 2
323.15 K	–	6.3 ± 2
328.15 K	–	5.49 ± 2
333.15 K	–	4.82 ± 2
338.15 K	–	4.28 ± 2
343.15 K	–	3.82

Conditions	mass density, [1] [kg/m3]	refractive index, [2]	speed of sound, [1] [m/s]
293.15 K	845.71 ± 4.1	1.4474 ± 0.0014	1377.6 ± 5.4
298.15 K	842.19 ± 4.1	1.4456 ± 0.0014	1359.6 ± 5.4
303.15 K	838.68 ± 4.1	1.4437 ± 0.0014	1341.8 ± 5.4
308.15 K	835.16 ± 4	1.4417 ± 0.0014	1324.2 ± 5.4
313.15 K	831.64 ± 4	1.4395 ± 0.0014	1306.8 ± 5.4
318.15 K	828.12 ± 4	1.4376 ± 0.0014	1289.6 ± 5.4
323.15 K	824.59 ± 4	1.4356 ± 0.0014	1272.5 ± 5.4
328.15 K	821.05 ± 3.9	1.4339 ± 0.0014	1255.6 ± 5.4
333.15 K	817.51 ± 3.9	1.4319 ± 0.0014	1239 ± 5.4
338.15 K	813.96 ± 3.9	1.43 ± 0.0014	1222.5 ± 5.4
343.15 K	810.41 ± 3.9	1.428 ± 0.0014	1206.8 ± 5.4

CCCCCCCC(=O)[O-].CCCCCCCC[NH+](CCCCCCCC)CCCCCCCC [trioctylammonium octanoate]
viscosity [mPa·s], [1]
Conditions	Cone and plate viscometry	Falling or rolling sphere viscometry
293.15 K	–	25.02 ± 2.1
298.15 K	25.07 ± 4.1	20.3 ± 2.1
303.15 K	–	16.63 ± 2.1
308.15 K	–	13.85 ± 2
313.15 K	–	11.6 ± 2
318.15 K	–	9.84 ± 2
323.15 K	–	8.38 ± 2
328.15 K	–	7.26 ± 2
333.15 K	–	6.33 ± 2
338.15 K	–	5.54 ± 2
343.15 K	–	4.92 ± 2

Conditions	mass density, [1] [kg/m3]	refractive index, [2]	speed of sound, [1] [m/s]
293.15 K	849.68 ± 4.1	1.4505 ± 0.0014	1393.1 ± 5.4
298.15 K	846.22 ± 4.1	1.4484 ± 0.0014	1375.3 ± 5.4
303.15 K	842.77 ± 4.1	1.4464 ± 0.0014	1357.6 ± 5.4
308.15 K	839.31 ± 4.1	1.4447 ± 0.0014	1340.1 ± 5.4
313.15 K	835.85 ± 4	1.4426 ± 0.0014	1322.8 ± 5.4
318.15 K	832.38 ± 4	1.4406 ± 0.0014	1305.7 ± 5.4
323.15 K	828.91 ± 4	1.4389 ± 0.0014	1288.8 ± 5.4
328.15 K	825.44 ± 4	1.4369 ± 0.0014	1272 ± 5.4
333.15 K	821.95 ± 4	1.4348 ± 0.0014	1255.5 ± 5.4
338.15 K	818.47 ± 3.9	1.4329 ± 0.0014	1239.2 ± 5.4
343.15 K	815.03 ± 3.9	1.4309 ± 0.0014	1223.7 ± 5.4

CCCCCC(=O)[O-].CCCCCCCC[NH+](CCCCCCCC)CCCCCCCC [trioctylammonium hexanoate] + O
Conditions	mass density, [3] [kg/m3]	refractive index, [4]	speed of sound, [3] [m/s]	viscosity, [3] [mPa·s]
w2 = 0.00078	844.54 ± 2.1	1.4469 ± 0.0011	1366.2 ± 2.8	16.72 ± 2
w2 = 0.001285	844.88 ± 2.1	–	1366.9 ± 2.8	15.89 ± 2
w2 = 0.001301	–	1.4465 ± 0.0011	–	–
w2 = 0.002315	845.44 ± 2.1	–	1367.8 ± 2.8	14.49 ± 2
w2 = 0.002627	–	1.4458 ± 0.0011	–	–
w2 = 0.003049	–	1.4455 ± 0.0011	–	–
w2 = 0.003128	845.81 ± 2.1	–	1368.8 ± 2.8	13.68 ± 2

CCCCCCCC(=O)[O-].CCCCCC[NH+](CCCCCC)CCCCCC [trihexylammonium octanoate]
viscosity [mPa·s], [1]
Conditions	Cone and plate viscometry	Falling or rolling sphere viscometry
293.15 K	–	17.02 ± 2.1
298.15 K	15.9 ± 4	13.93 ± 2
303.15 K	–	11.55 ± 2
308.15 K	–	9.68 ± 2
313.15 K	–	8.21 ± 2
318.15 K	–	7.02 ± 2
323.15 K	–	6.06 ± 2
328.15 K	–	5.27 ± 2
333.15 K	–	4.62 ± 2
338.15 K	–	4.1 ± 2
343.15 K	–	3.65

Conditions	mass density, [1] [kg/m3]	refractive index, [2]	speed of sound, [1] [m/s]
293.15 K	851.2 ± 4.1	1.4459 ± 0.0014	1365.7 ± 5.4
298.15 K	847.63 ± 4.1	1.4441 ± 0.0014	1347.7 ± 5.4
303.15 K	844.06 ± 4.1	1.4419 ± 0.0014	1329.8 ± 5.4
308.15 K	840.48 ± 4.1	1.4399 ± 0.0014	1312.2 ± 5.4
313.15 K	836.9 ± 4	1.4381 ± 0.0014	1294.7 ± 5.4
318.15 K	833.31 ± 4	1.4359 ± 0.0014	1277.4 ± 5.4
323.15 K	829.72 ± 4	1.4341 ± 0.0014	1260.2 ± 5.4
328.15 K	826.11 ± 4	1.4322 ± 0.0014	1243.2 ± 5.4
333.15 K	822.5 ± 4	1.4299 ± 0.0014	1226.5 ± 5.4
338.15 K	818.87 ± 3.9	1.4278 ± 0.0014	1209.9 ± 5.4
343.15 K	815.25 ± 3.9	1.4258 ± 0.0014	1194 ± 5.4

CCCCCC(=O)[O-].CCCCCCCC[NH+](CCCCCCCC)CCCCCCCC [trioctylammonium hexanoate]
viscosity [mPa·s], [1]
Conditions	Cone and plate viscometry	Falling or rolling sphere viscometry
293.15 K	–	20.58 ± 2.1
298.15 K	20.59 ± 4	16.72 ± 2.1
303.15 K	–	13.76 ± 2
308.15 K	–	11.47 ± 2
313.15 K	–	9.64 ± 2
318.15 K	–	8.19 ± 2
323.15 K	–	7.04 ± 2
328.15 K	–	6.09 ± 2
333.15 K	–	5.32 ± 2
338.15 K	–	4.67 ± 2
343.15 K	–	4.14 ± 2

Conditions	mass density, [1] [kg/m3]	refractive index, [2]	speed of sound, [1] [m/s]
293.15 K	848.02 ± 4.1	1.4489 ± 0.0014	1384 ± 5.4
298.15 K	844.54 ± 4.1	1.4469 ± 0.0014	1366.2 ± 5.4
303.15 K	841.06 ± 4.1	1.4451 ± 0.0014	1348.5 ± 5.4
308.15 K	837.58 ± 4	1.4432 ± 0.0014	1331 ± 5.4
313.15 K	834.1 ± 4	1.4413 ± 0.0014	1313.8 ± 5.4
318.15 K	830.61 ± 4	1.4394 ± 0.0014	1296.6 ± 5.4
323.15 K	827.12 ± 4	1.4375 ± 0.0014	1279.7 ± 5.4
328.15 K	823.62 ± 4	1.4353 ± 0.0014	1262.9 ± 5.4
333.15 K	820.12 ± 3.9	1.4336 ± 0.0014	1246.4 ± 5.4
338.15 K	816.62 ± 3.9	1.4316 ± 0.0014	1230.1 ± 5.4
343.15 K	813.12 ± 3.9	1.4294 ± 0.0014	1214.5 ± 5.4
